Laboratory results: patent publication US8324211B2, “Inhibitors of bruton's tyrosine kinase” (Roche Palo Alto LLC, priority 2008, dated 2012)

These molecules were tested against T1, Btk enzyme (His-tagged, full-length) (Homo sapiens, UniProt Q06187) (assay: Bruton's Tyrosine Kinase (Btk) Inhibition Assay (33P filtration capture)). Settings: 100 μM ATP, 30 μM peptide substrate, 30 min at 30° C.
T1 construct: 5-10 nM Btk enzyme (His-tagged, full-length); His
Assay type: biochemical
Source text: Bruton's Tyrosine Kinase (Btk) Inhibition Assay
The assay is a capture of radioactive ^33P phosphorylated product through filtration. The interactions of Btk, biotinylated SH2 peptide substrate (Src homology), and ATP lead to phosphorylation of the peptide substrate. Biotinylated product is bound streptavidin sepharose beads. All bound, radiolabeled products are detected by scintillation counter.
Plates assayed are 96-well polypropylene (Greiner) and 96-well 1.2 μm hydrophilic PVDF filter plates (Millipore). Concentrations reported here are final assay concentrations: 10-100 μM compounds in DMSO (Burdick and Jackson), 5-10 nM Btk enzyme (His-tagged, full-length), 30 μM peptide substrate (Biotin-Aca-AAAEEIYGEI-NH2), 100 μM ATP (Sigma), 8 mM imidazole (Sigma, pH 7.2), 8 mM glycerol-2-phosphate (Sigma), 200 μM EGTA (Roche Diagnostics), 1 mM MnCl2 (Sigma), 20 mM MgCl2 (Sigma), 0.1 mg/ml BSA (Sigma), 2 mM DTT (Sigma), 1 μCi^33P ATP (Amersham), 20% streptavidin sepharose beads (Amersham), 50 mM EDTA (Gibco), 2 M NaCl (Gibco), 2 M NaCl w/1% phosphoric acid (Gibco), microscint-20 (Perkin Elmer).
IC50 determinations are calculated from 10 data points per compound utilizing data produced from a standard 96-well plate assay template. One control compound and seven unknown inhibitors were tested on each plate and each plate was run twice. Typically, compounds were diluted in half-log starting at 100 μM and ending at 3 nM.The control compound was staurosporine. Background was counted in the absence of peptide substrate. Total activity was determined in the presence of peptide substrate. The following protocol was used to determine Btk inhibition. • 1) Sample preparation: The test compounds were diluted at half-log increments in assay buffer (imidazole, glycerol-2-phosphate, EGTA, MnCl2, MgCl2, BSA). • 2) Bead preparation […]

T1 sequence (Q06187 whole entry): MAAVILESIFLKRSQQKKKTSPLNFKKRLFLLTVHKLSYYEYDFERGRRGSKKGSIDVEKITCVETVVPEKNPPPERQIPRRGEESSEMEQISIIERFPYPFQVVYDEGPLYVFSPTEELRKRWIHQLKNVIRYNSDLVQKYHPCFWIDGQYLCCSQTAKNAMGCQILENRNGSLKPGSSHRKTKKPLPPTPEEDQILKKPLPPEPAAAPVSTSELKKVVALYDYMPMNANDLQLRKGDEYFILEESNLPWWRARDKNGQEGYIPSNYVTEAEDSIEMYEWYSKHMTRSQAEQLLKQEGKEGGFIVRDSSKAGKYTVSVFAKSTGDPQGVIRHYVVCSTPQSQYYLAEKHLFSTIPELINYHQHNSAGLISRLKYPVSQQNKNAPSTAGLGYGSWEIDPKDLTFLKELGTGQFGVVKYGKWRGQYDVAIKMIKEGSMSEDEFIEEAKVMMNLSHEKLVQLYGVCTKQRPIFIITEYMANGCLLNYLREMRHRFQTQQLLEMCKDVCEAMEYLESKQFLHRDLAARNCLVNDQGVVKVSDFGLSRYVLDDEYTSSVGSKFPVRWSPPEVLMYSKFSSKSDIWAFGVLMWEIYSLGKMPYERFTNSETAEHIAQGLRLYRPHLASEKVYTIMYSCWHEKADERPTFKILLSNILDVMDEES

IC50, < 10 nM:
O=C(c1ccc(Nc2cc(-c3cccc(N4CCc5cc(C6CC6)ccc5C4=O)c3CO)nn3ccnc23)nc1)N1CCOCC1 [II-2, 6-Cyclopropyl-2-(2-hydroxymethyl-3-{8-[5-(morpholine-4-carbonyl)-pyridin-2-ylamino]-imidazo[1,2-b]pyridazin-6-yl}-phenyl)-3,4-dihydro-2H-isoquinolin-1-one]
CN(C)c1ccc2c(c1)CCN(c1cccc(-c3cc(Nc4ccc(C(=O)N5CCOCC5)cn4)c4nccn4c3)c1CO)C2=O [II-4, 6-Dimethylamino-2-(2-hydroxymethyl-3-{8-[5-(morpholine-4-carbonyl)-pyridin-2-ylamino]-imidazo[1,2-a]pyridin-6-yl}-phenyl)-3,4-dihydro-2H-isoquinolin-1-one]
CN(C)c1ccc2c(c1)CCN(c1cccc(-c3cc(Nc4ccc(C(=O)N5CCOCC5)cn4)c4nccn4n3)c1CO)C2=O [II-1, 6-Dimethylamino-2-(2-hydroxymethyl-3-{8-[5-(morpholine-4-carbonyl)-pyridin-2-ylamino]-imidazo[1,2-b]pyridazin-6-yl}-phenyl)-3,4-dihydro-2H-isoquinolin-1-one]
